Measured values from patent US9642362B2, “Antimicrobial compositions and uses thereof” (CASCADES CANADA ULC, priority 2012, dated 2017).
Where no end group is shown, it is not given here.

What was measured:
[1] = test system: E. coli ATCC 11229; assay: Agar diffusion test of pre-soaked paper towel; assay type: cell-based, Escherichia coli; conditions: FIG. 5
From the text: The antimicrobial activity of the compositions as described herein on a cellulosic substrate could be determined by soaking the cellulosic substrate in the compositions to be tested and plating the cellulosic substrate on agar. An agar diffusion test could then be performed.
The agar well diffusion method previously described by Tagg et al. 1976 was applied as a rapid method to detect the inhibitory activity of the compounds directly (as a solution) or after immobilization on paper towel. Briefly, 25 mL of sterile TSB with 0.8% (w/v) agar was seeded with 150 μL of an overnight culture of one of the target sensitive strains and poured into a sterile Petri dish (Starstedt Inc., Montreal, Canada). The Petri dishes were kept for 20 min at room temperature under sterile conditions to allow agar solidification. Wells 7 mm in diameter were then cut in the solidified agar using the wide end of a sterile 5-mL pipette. Each well was filled with 80 μL of the compound or mixture to be tested. In the case of pre-soaked paper towel, circles 1 cm in diameter were cut and deposited directly on the solidified agar. All plates were incubated at 30° C. for 18 h and the diameter of the zone of inhibition was measured.
The aim of this experiment was to study the inhibition of bacterial growth by the antimicrobial Mix I and II in association with paper towels.

[2] = test system: Listeria ivanovii HPB28; assay: Growth curves by microplate microdilution method; assay type: cell-based; conditions: for Reduction of growth, taken separately compared with combined (Mix II): FIG. 1B; for Reduction of growth, taken separately compared with combined (Mix I): FIG. 2B, lactic acid (0.125%), citric acid (0.0625%) and pediocin; for Inhibition (growth curves): FIGS. 1B, 2, compounds alone at citric acid 0.25%, lactic acid 0.25%, reuterin 1.25%, or combined as Mix
Description: (§1) The inhibitory activity of the various antimicrobial compounds alone or in combination was assayed using the microtiter plate critical dilution method with two-fold serial dilutions in TSB (Turcotte et al., 2004). The 100-μL carry-over volume was drawn into the multi-channel pipette four times between each dilution. Wells were then seeded with 40 μL of target strain overnight culture diluted 1,000 fold. The plates (MIC-2000 U-Bottom Microtiter® Plates; Thermo Labsystems, Franklin, Mass., USA) were incubated at 30° C. for 18 h before reading the optical density at 650 nm using a Thermomax microplate reader (Molecular Devices, Opti-Resources, Charny, QC, Canada).
(§2) One arbitrary unit (AU) was defined as a 100-μL portion of the highest dilution of tested sample that inhibited growth in a well after 18 h of incubation (Daba et al, 1993). […] The number of AU per ml is thus […], where n=number of inhibited wells.

[3] = test system: E. coli ATCC 11229; assay: Growth curves by microplate microdilution method; assay type: cell-based, Escherichia coli; conditions: for Reduction of growth, taken separately compared with combined (Mix II): FIG. 1A; for Inhibition (growth curves): FIGS. 1A, 2, compounds alone at citric acid 0.25%, lactic acid 0.25%, reuterin 1.25%, or combined as Mix
Description: as §1, §2

Row | Compound | Inhibition of bacterial growth, individually compared with Mix I and Mix II [1] | Reduction of growth, taken separately compared with combined (Mix II) [2] | Reduction of growth, taken separately compared with combined (Mix I) [2] | Inhibition (growth curves) [2] | Reduction of growth, taken separately compared with combined (Mix II) [3] | Inhibition (growth curves) [3]
1 | CC(=O)O [acetic acid] | do not inhibit E. Coli ATCC 11229 bacterial growth as efficiently as Mix I | – | – | – | – | –
2 | O=C(O)CC(O)(CC(=O)O)C(=O)O [citric acid] | – | do not reduce the growth of E. Coli ATCC 11229 or Listeria ivanovii HPB28 as efficiently | do not reduce the growth of Listeria ivanovii HPB28 as efficiently | partial and non-significant inhibition | do not reduce the growth of E. Coli ATCC 11229 or Listeria ivanovii HPB28 as efficiently | partial and non-significant inhibition
3 | pediocin: Fresh pediocin extract; class IIa bacteriocin produced by lactic acid bacteria (KYYGNGVTCGKHSCSVDWGKATTCIINNGAMAWATGGHQGNHKC; ends and bridges not checked; cysteine pairing not given here; UniProt P29430 19-62, looked up) | do not inhibit E. Coli ATCC 11229 bacterial growth as efficiently as Mix I | – | do not reduce the growth of Listeria ivanovii HPB28 as efficiently | – | – | –
4 | CC(O)C(=O)O (centres unmarked) [lactic acid] | do not inhibit E. Coli ATCC 11229 bacterial growth as efficiently as Mix I | do not reduce the growth of E. Coli ATCC 11229 or Listeria ivanovii HPB28 as efficiently | do not reduce the growth of Listeria ivanovii HPB28 as efficiently | partial and non-significant inhibition | do not reduce the growth of E. Coli ATCC 11229 or Listeria ivanovii HPB28 as efficiently | partial and non-significant inhibition
